8 compounds from PubChem BioAssay (NCI) can be followed below.

Among the test systems are A498 renal; DU-145 prostate; HL-60(TB) leukemia; HOP-62 NSCLC; HOP-92 NSCLC; NCI-H226 lung; OVCAR-4 ovarian; RPMI-8226 leukemia; RXF 393 renal; M14 melanoma.
What all share (experiment): inhibition of tumour cell growth, NCI panel, 48 h

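The compound was tested at five concentrations on cells cultured in 96-well plates, with a 48-hour exposure period. GI50 is the concentration that inhibits growth by half. At the TGI there is no net growth.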

As for `COC(=O)Nc1nc2ccc(C3(c4ccc(F)cc4)OCCO3)cc2[nH]1`, the GI50 in the experiment with A498 renal is 0.133 µM; with DU-145 prostate it was 0.363 µM; in the experiment on HL-60(TB) leukemia it was 0.242 µM; in the experiment with HOP-62 NSCLC it was 3.24 µM; in the experiment on HOP-92 NSCLC, 0.268 µM; in the experiment with NCI-H226 lung it was 2.15 µM. Further, the GI50 is 7.16 µM with OVCAR-4 ovarian, 0.427 µM with RPMI-8226 leukemia and 0.211 µM in the experiment on RXF 393 renal. Besides, the TGI in the experiment on A498 renal was 2.87 µM; with DU-145 prostate, over 100 µM; in the experiment with HL-60(TB) leukemia, 0.765 µM; in the experiment on HOP-62 NSCLC, over 100 µM; with HOP-92 NSCLC it was 58 µM; in the experiment with NCI-H226 lung, over 94 µM. In addition, the TGI in the experiment with OVCAR-4 ovarian is over 100 µM; with RPMI-8226 leukemia, over 100 µM; in the experiment with RXF 393 renal, 0.654 µM.
For `C=CCCCCC/C=C\[C@@H](O)C#CC#C/C=C/CO`, the GI50 is over 100 µM in the experiment on A498 renal; over 100 µM in the experiment with DU-145 prostate; 11.2 µM in the experiment on HL-60(TB) leukemia; over 100 µM in the experiment with HOP-62 NSCLC; over 100 µM with HOP-92 NSCLC; over 100 µM in the experiment on M14 melanoma. The GI50 was 25.5 µM with NCI-H226 lung, over 100 µM with OVCAR-4 ovarian, 16.3 µM with RPMI-8226 leukemia and over 100 µM in the experiment on RXF 393 renal. For the same compound, the TGI in the experiment with A498 renal is over 100 µM; in the experiment with DU-145 prostate, over 100 µM; with HL-60(TB) leukemia it was 27.8 µM; in the experiment on HOP-62 NSCLC, over 100 µM; in the experiment with HOP-92 NSCLC, over 100 µM; in the experiment on M14 melanoma, over 100 µM. In addition, the TGI in the experiment on NCI-H226 lung is 57.6 µM; in the experiment with OVCAR-4 ovarian, over 100 µM; with RPMI-8226 leukemia, 38.4 µM; with RXF 393 renal, over 100 µM.
Take `O=c1cc(NCC(O)CN2CCCC2)n(Cc2ccccc2)c(=O)n1Cc1ccccc1` (centres undefined): the GI50 in the experiment with A498 renal is over 100 µM; in the experiment on DU-145 prostate, 87 µM; in the experiment with HL-60(TB) leukemia, 7.81 µM; in the experiment on HOP-62 NSCLC, 18.7 µM; in the experiment with HOP-92 NSCLC, 14.9 µM; in the experiment with NCI-H226 lung, over 100 µM. In addition, the GI50 with OVCAR-4 ovarian was 58.3 µM; in the experiment on RPMI-8226 leukemia it was 22.6 µM; in the experiment on RXF 393 renal, 46 µM. In addition, the TGI is over 100 µM with A498 renal; over 100 µM in the experiment with DU-145 prostate; 30.3 µM in the experiment on HL-60(TB) leukemia; 54.4 µM in the experiment on HOP-62 NSCLC; over 100 µM in the experiment with HOP-92 NSCLC; over 100 µM in the experiment with NCI-H226 lung. For the same compound, the TGI in the experiment with OVCAR-4 ovarian is over 100 µM; in the experiment with RPMI-8226 leukemia, 46.5 µM; in the experiment with RXF 393 renal, over 100 µM.
Turning to `COc1ccc(/C=C/c2c(C(=O)/C=C/c3ccccc3)c(C)nc3ccccc23)cc1`, the GI50 was 1.7 µM in the experiment on A498 renal; 1.68 µM in the experiment with DU-145 prostate; 2.3 µM in the experiment with HL-60(TB) leukemia; 1.89 µM with HOP-62 NSCLC; 1.4 µM in the experiment with HOP-92 NSCLC; 1.84 µM in the experiment with M14 melanoma. For the same compound, the GI50 with NCI-H226 lung was 1.81 µM; in the experiment on OVCAR-4 ovarian it was 2.27 µM; with RPMI-8226 leukemia, 1.74 µM; in the experiment with RXF 393 renal, 1.63 µM. Further, the TGI with A498 renal worked out at 3.15 µM; with DU-145 prostate it was 3.16 µM; in the experiment with HL-60(TB) leukemia, 5.79 µM; in the experiment with HOP-62 NSCLC, 3.58 µM; with HOP-92 NSCLC, 3.84 µM; in the experiment with M14 melanoma, 4.44 µM. For the same compound, the TGI in the experiment with NCI-H226 lung worked out at 4.02 µM; with OVCAR-4 ovarian it was 6.85 µM; with RPMI-8226 leukemia, 5.54 µM; in the experiment on RXF 393 renal, 3.04 µM.
On to `CCc1nc2cc(F)c(/C=C/C(=O)NO)cc2c(=O)n1CCc1ccccc1`, for which the GI50 was 0.149 µM in the experiment on A498 renal; 0.358 µM in the experiment with DU-145 prostate; 0.415 µM with HL-60(TB) leukemia; 0.291 µM in the experiment with HOP-62 NSCLC; 0.33 µM with HOP-92 NSCLC; 0.355 µM in the experiment with M14 melanoma. The GI50 is 0.371 µM in the experiment with NCI-H226 lung, 0.314 µM with OVCAR-4 ovarian, 0.387 µM in the experiment with RPMI-8226 leukemia and 0.23 µM in the experiment on RXF 393 renal. Further, the TGI was 0.736 µM in the experiment with A498 renal; 10.5 µM in the experiment with DU-145 prostate; over 100 µM with HL-60(TB) leukemia; 1.74 µM in the experiment on HOP-62 NSCLC; 4.87 µM with HOP-92 NSCLC; 4.78 µM in the experiment with M14 melanoma. The TGI in the experiment on NCI-H226 lung was determined as 7.36 µM; with OVCAR-4 ovarian it was 14.9 µM; with RPMI-8226 leukemia, 19.9 µM; in the experiment with RXF 393 renal, 0.731 µM.
For `COc1ccc(C2=C(Cl)c3cc(OC)c(OC)cc3C2Cl)cc1` (centres undefined), the TGI came out at 28.9 µM in the experiment on A498 renal; 45.4 µM in the experiment on DU-145 prostate; 18.1 µM in the experiment with HL-60(TB) leukemia; 32.2 µM in the experiment on HOP-62 NSCLC; 30.3 µM with HOP-92 NSCLC; 37.1 µM with M14 melanoma. Further, the TGI is 66 µM in the experiment with NCI-H226 lung, 35.4 µM in the experiment on OVCAR-4 ovarian, over 66.3 µM with RPMI-8226 leukemia and 30.4 µM in the experiment with RXF 393 renal.
Turning to `COCC[C@H]1CCC/C=C/[C@@H]2C[C@H](O)C[C@H]2[C@H](O)/C=C/C(=O)O1`, the GI50 in the experiment with A498 renal was 0.0231 µM; in the experiment with DU-145 prostate, 0.445 µM; with HL-60(TB) leukemia, 0.273 µM; with HOP-62 NSCLC, 0.0946 µM; in the experiment with HOP-92 NSCLC, 0.214 µM; in the experiment with M14 melanoma, 0.0436 µM. The GI50 in the experiment with NCI-H226 lung is 0.0293 µM; with OVCAR-4 ovarian, 0.0528 µM; with RPMI-8226 leukemia, 0.284 µM; in the experiment with RXF 393 renal it was 0.0219 µM. Also, the TGI is 0.107 µM in the experiment with A498 renal; over 100 µM in the experiment with DU-145 prostate; 0.87 µM in the experiment with HL-60(TB) leukemia; over 100 µM in the experiment with HOP-62 NSCLC; 0.888 µM in the experiment on HOP-92 NSCLC; over 100 µM with M14 melanoma. Also, the TGI is 0.121 µM in the experiment on NCI-H226 lung and 0.0539 µM in the experiment on RXF 393 renal.
With `O=C(Nc1n[nH]c2cc(-c3ccccc3)ccc12)C1CC1`, the GI50 was 16.1 µM with A498 renal; 9.28 µM in the experiment with DU-145 prostate; 6.34 µM in the experiment with HL-60(TB) leukemia; over 25 µM with HOP-62 NSCLC; over 25 µM in the experiment with HOP-92 NSCLC; 15.4 µM with M14 melanoma. Also, the GI50 in the experiment on NCI-H226 lung is over 25 µM; with OVCAR-4 ovarian it was over 25 µM; in the experiment on RPMI-8226 leukemia, 9.58 µM; with RXF 393 renal, 7.91 µM. For the same compound, the TGI in the experiment on A498 renal was over 25 µM; with DU-145 prostate it was over 25 µM; in the experiment on HL-60(TB) leukemia, over 20.7 µM; in the experiment with HOP-62 NSCLC, over 25 µM; with HOP-92 NSCLC, over 25 µM; in the experiment on M14 melanoma, over 25 µM. Also, the TGI in the experiment with NCI-H226 lung, in the experiment with OVCAR-4 ovarian, with RPMI-8226 leukemia and with RXF 393 renal was over 25 µM each time.
